The assay has as its system Plasmodium falciparum. As to the kind of experiment: In vitro anti-malarial activity against Plasmodium falciparum, IC50 assay / [3H]-hypoxanthine incorporation assay. The format is cell-based. Particulars: Erythrocyte, parasitized red blood cells, 48 hours. Here is the method: In Vitro Anti-malarial Activity Against Plasmodium falciparum
IC50 Assay/[^3H]-Hypoxanthine Assay
Plasmodium falciparum strains.
The culture medium comprised RPMI 1640 with 25 mM HEPES, sodium bicarbonate and glutamine (GIBCO™ cat. ref.: 52400), supplemented with 10% of pooled human sera AB (Irvine Scientific, cat. ref.: 5009) and HT supplement (0.15 mM hypoxanthine and 24 μM thymidine), (GIBCO™ cat. ref.: 41065). Human sera were decomplemented 30 min. at 56° C., aliquoted and stored frozen at −20° C. until use in this culture medium.
Red blood cells O+ stock suspensions were prepared from whole blood bags coming from incomplete blood donation, provided by the Spanish Red Cross (<25 days after sampling). This “whole blood” was aliquoted and stored at 4° C.
To prepare red blood cells for the assay, the whole blood was centrifuged and washed 3 times with RPMI without serum. The upper phase, containing white blood cells was removed. The washed red blood cells were kept as a 50% suspension in complete medium. The prepared cells were stored at 4° C. and were employed in the assay at any time up to 4 days after preparation.
Test compounds were dissolved at 2 mg/ml in 100% DMSO on the day of the assay. If necessary, complete dissolution was achieved by gentle heating (the mixture was heated at a temperature <37° C.) and sonication (sonication bath).
For IC50 determinations, 10 serial 2-fold dilutions were prepared in complete medium in the presence of a constant amount of DMSO.
Plasmodium falciparum strains were maintained in complete medium at an hematocrit of 5% in continuous culture using a method adapted from Trager and Jensen (1, 2).
The parasitemia was calculated by counting the percentage of parasitized erythrocytes by optical microscopy. Thin films of blood were made every day from each culture flask, fixed with methanol and stained for 10 min. in Giemsa (Merck, cat ref.: 1.09204) at 10% in buffered water pH 7.2. The glass slides were observed and counted with an optical microscope (Nikon, Eclipse E200) equipped with a 100× immersion oil objective.
The culture was maintained at an hematocrit of 5%, with a daily change of medium and was diluted when parasitemia had reached about 5%.
[^3H] Hypoxanthine incorporation assay was conducted using a method adapted from Desjardins et al. (3). The assays were performed in 96 wells flat bottom microplates.
1. Serial dilutions of the test compounds (50 μl of a 5× solution/well) were deposited in duplicate. Compounds of the invention were tested in this assay. Chloroquine and Atovaquone were used as control compounds for each assay.
3. [^3H]-Hypoxanthine (Amersham Biosciences, cat. ref.: TRK74) was added extemporaneously to the inoculum suspension at a concentration of 1 μCi/ml (equating to […]). 200 μl of the resulting suspension was distributed into each well (other than the control well H12 described below) leading to a final volume of 250 μl per well, at 2% of hematocrit and 0.5% of parasitemia/well.
4. In each plate, 2 columns were reserved for control wells: • Column 11: Positive control wells: PRBCs with 0.2% DMSO—(i) to determine DMSO solvent effect on parasite growth (at a final concentration of 0.2%) and (ii) to compare with cultures treated with test compounds. • Column 12 (comprising wells A12-H12): • A12-D12—Background value wells: Uninfected RBCs—blank control to obtain the background reading from RBCs without parasites. • E12-G12—Solvent effect wells: PRBCs without DMSO—to determine DMSO solvent effect on PRBCs by comparing these wells with column 11 wells. • H12-Non-radioactive well: PRBCs with cold hypoxanthine—(i) to carry out a thin blood film to determine parasitemia value after incubation by microscopy and (ii) to ensure that the parasites have grown properly during the assay. (200 μl of inoculum suspension was prepared as described above (Items 2 and 3) but with non-tritiated hypoxanthine instead of [3H]-hypoxanthine, then added to this well to a final volume of 250 μl). […]

Bounds are passed on as bounds.

In general, IC50 refers to the concentration at which inhibition is half-maximal. Low readings indicate inhibition by little substance, high ones a need for much substance. For the compound `Cc1[nH]c(C)c(-c2ccc(-c3ccc(OC(F)(F)F)cc3)nc2)c(=O)c1Br` [Example 15, 5-Bromo-2,6-dimethyl-6′-{4-[(trifluoromethyl)oxy]phenyl}-3,3′-bipyridin-4(1H)-one], the IC50 was less than 0.125 µg/mL. `Cc1[nH]c(C)c(-c2ccc(-c3ccc(OC(F)(F)F)cc3)nc2)c(=O)c1Cl` [Example 27, 5-Chloro-2,6-dimethyl-6′-{4-[(trifluoromethyl)oxy]phenyl}-3,3′-bipyridin-4(1H)-one] came in with a 50% inhibitory concentration (IC50) of less than 0.125 µg/mL. `Cc1[nH]c(C)c(-c2ccc(-c3cccc(OC(F)(F)F)c3)nc2)c(=O)c1Cl` [Example 28, 5-Chloro-2,6-dimethyl-6′-{3-[(trifluoromethyl)oxy]phenyl}-3,3′-bipyridin-4(1H)-one] came in with a half-maximal inhibitory concentration (IC50) of less than 0.125 µg/mL. Under `Cc1[nH]c(C)c(-c2ccc(-c3ccccc3OC(F)(F)F)nc2)c(=O)c1Cl` [Example 29, 5-Chloro-2,6-dimethyl-6′-{2-[(trifluoromethyl)oxy]phenyl}-3,3′-bipyridin-4(1H)-one] stands less than 0.125 µg/mL; under `Cc1[nH]c(C)c(-c2ccc(-c3ccc(C(F)(F)F)cc3)nc2)c(=O)c1Cl` [Example 30, 5-Chloro-2,6-dimethyl-6′-{4-[trifluoromethyl]phenyl}-3,3′-bipyridin-4(1H)-one], less than 0.125 µg/mL; under `Cc1[nH]c(C)c(-c2ccc(-c3cccc(C(F)(F)F)c3)nc2)c(=O)c1Cl` [Example 31, 5-Chloro-2,6-dimethyl-6′-{3-[trifluoromethyl]phenyl}-3,3′-bipyridin-4(1H)-one], less than 0.125 µg/mL. Under `Cc1[nH]c(C)c(-c2ccc(-c3ccccc3C(F)(F)F)nc2)c(=O)c1Cl` [Example 32, 5-Chloro-2,6-dimethyl-6′-{2-[trifluoromethyl]phenyl}-3,3′-bipyridin-4(1H)-one] stands less than 0.125 µg/mL; under `Cc1[nH]c(C)c(-c2ccc(-c3ccc(Cl)cc3)nc2)c(=O)c1Cl` [Example 33, 5-Chloro-6′-(4-chlorophenyl)-2,6-dimethyl-3,3′-bipyridin-4(1H)-one], less than 0.125 µg/mL.

`Cc1[nH]c(C)c(-c2ccc(-c3cccc(Cl)c3)nc2)c(=O)c1Cl` [Example 34, 5-Chloro-6′-(3-chlorophenyl)-2,6-dimethyl-3,3′-bipyridin-4(1H)-one]: the IC50 is less than 0.125 µg/mL. On to `Cc1[nH]c(C)c(-c2ccc(-c3ccccc3Cl)nc2)c(=O)c1Cl` [Example 35, 5-Chloro-6′-(2-chlorophenyl)-2,6-dimethyl-3,3′-bipyridin-4(1H)-one], for which the 50% inhibitory concentration (IC50) is less than 0.125 µg/mL.

Compound `Cc1[nH]c(C)c(-c2ccc(-c3ccc(OC(F)(F)F)cc3)nc2)c(=O)c1Cl.Cl` [Example 38, 5-Chloro-2,6-dimethyl-6′-{4-[(trifluoromethyl)oxy]phenyl}-3,3′-bipyridin-4(1H)-one] had an IC50 of less than 0.125 µg/mL. Regarding `CCCCc1ccc(-c2ccc(-c3c(C)[nH]c(C)c(Br)c3=O)cn2)cc1.Cl` [Example 39, 5-Bromo-6′-(4-n-butylphenyl)-2,6-dimethyl-3,3′-bipyridin-4(1H)-one], the 50% inhibitory concentration (IC50) was less than 0.125 µg/mL. Consider `Cc1[nH]c(C)c(-c2ccc(C#Cc3ccc(C(F)(F)F)cc3)nc2)c(=O)c1Br` [Example 40, 5-Bromo-2,6-dimethyl-6′-{[4-(trifluoromethyl)phenyl]ethynyl}-3,3′-bipyridin-4(1H)-one], for which the IC50 is less than 0.125 µg/mL. Compound `Cc1[nH]c(C)c(-c2ccc(C#Cc3ccc(C(F)(F)F)cc3)nc2)c(=O)c1Cl` [Example 41, 5-Chloro-2,6-dimethyl-6′-{[4-(trifluoromethyl)phenyl]ethynyl}-3,3′-bipyridin-4(1H)-one] registered an IC50 of less than 0.125 µg/mL. Under `Cc1[nH]c(C)c(-c2ccc(CCc3cccc(C(F)(F)F)c3)nc2)c(=O)c1Br` [Example 43, 5-Bromo-2,6-dimethyl-6′-{2-[3-(trifluoromethyl)phenyl]ethyl}-3,3′-bipyridin-4(1H)-one] stands less than 0.125 µg/mL; under `Cc1[nH]c(C)c(-c2ccc(CCc3ccc(F)cc3F)nc2)c(=O)c1Cl` [Example 46, 5-Chloro-6′-{2-[2,4-difluorophenyl]ethyl}-2,6-dimethyl-3,3′-bipyridin-4(1H)-one], less than 0.125 µg/mL; under `CCCCCCCc1ccc(-c2c(C)[nH]c(C)c(Cl)c2=O)cn1` [Example 47, 5-Chloro-6′-(n-heptyl)-2,6-dimethyl-3,3′-bipyridin-4(1H)-one], less than 0.125 µg/mL.

As for `Cc1[nH]c(C)c(-c2ccc(CCc3ccc(C(F)(F)F)cc3)cn2)c(=O)c1Cl` [Example 52, 5′-Chloro-2′,6′-dimethyl-5-{2-[4-(trifluoromethyl)phenyl]ethyl}-2,3′-bipyridin-4′(1′H)-one], the 50% inhibitory concentration (IC50) is less than 0.125 µg/mL. Under `Cc1[nH]c(C)c(-c2ccc(-c3ccc4c(c3)OCO4)nc2)c(=O)c1Cl` [Example 54] stands less than 0.125 µg/mL; under `Cc1[nH]c(C)c(-c2ccc(-c3ccc(C(F)(F)F)cc3Cl)nc2)c(=O)c1Cl` [Example 55, 5-chloro-6′-[2-chloro-4-(trifluoromethyl)phenyl]-2,6-dimethyl-3,3′-bipyridin-4(1H)-one], less than 0.125 µg/mL. On to `Cc1[nH]c(C)c(-c2ccc(-c3ccc(OCC(F)(F)F)cc3)nc2)c(=O)c1Cl` [Example 62, 5-Chloro-2,6-dimethyl-6′-{4-[2,2,2-trifluoroethoxy]phenyl}-3,3′-bipyridin-4(1H)-one], for which the half-inhibitory concentration (IC50) was less than 0.125 µg/mL. Turning to `Cc1[nH]c(C)c(-c2ccc(-c3ccc(C(F)F)cc3)nc2)c(=O)c1Cl` [Example 63, 5-Chloro-2,6-dimethyl-6′-{4-[difluoromethyl]phenyl}-3,3′-bipyridin-4(1H)-one], the IC50 was less than 0.125 µg/mL. Under `Cc1[nH]c(C)c(-c2cnc(-c3ccc(C(F)(F)F)cc3)nc2)c(=O)c1Cl` [Example 64, 3-Chloro-2,6-dimethyl-5-(5-(2-(4-trifluoromethylphenyl))pyrimidinyl)pyridin-4(1H)-one] stands less than 0.125 µg/mL. Under `Cc1[nH]c(C)c(-c2ccc(-c3ccc(N(C)C)c(Br)c3)nc2)c(=O)c1Br` [Example 71, 5-Bromo-6′-[3-bromo-4-(dimethylamino)phenyl]-2,6-dimethyl-3,3′-bipyridin-4(1H)one] stands less than 0.125 µg/mL.
